assay: recombinant UMI read abundance after kanamycin selection (control-corrected) (log10(CPM+1)); higher = more efficient recombination; extreme values may be limits of the assay; sequences stand for … in AGTGCAGAGAAAATCGGCCAGTTTTCTCTGCCTGCAGTCCGCATGCCGTGGGACCCCTTGGGTTCTAACCTGTTGCCTAGATTTATGCAGCGGACTGCCTTTCTCCCAAAGTGATAAACCGG…AGGTTGGTTTCACT; site = the 11-nt donor
Outline: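 Counts of recombinant UMIs were reported as log10(CPM+1). Before that, they were converted to CPM, averaged over replicates and scaled using control-derived factors. They came from PCR across the donor–target junction after Escherichia coli carrying the pair library and target plasmid was plated on IPTG (0.07 mM) plus kanamycin, or unselected, in two replicates each.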
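Note: IS621 bridge recombinase in Escherichia coli cells against a fixed T5 target plasmid.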

Sequence	recombinant UMI read abundance (log10)
GTTAGAACATGGACCGGTTTTCCCGGTAATCCGTATTTGTC (site GTTAGAACTGA)	1.52
AGCTTAGCATGGACCGGTTTTCCCGGTAATCCGTATTTGGG (site AGCTTAGCTCC)	0.0198
TAGAATACATGGACCGGTTTTCCCGGTAATCCGTATTTGAA (site TAGAATACTTA)	0.0126
GGTCCGTCATGGACCGGTTTTCCCGGTAATCCGTATTTGTT (site GGTACGTCTAA)	0.00692
AGTGTCTCATGGACCGGTTTTCCCGGTAATCCGTATTTGCA (site AGTGTCTCTTG)	3.07
CAAGCAGCATGGACCGGTTTTCCCGGTAATCCGTATTTGCA (site CAAGCAGCTAG)	1.22
CACTTGCCATGGACCGGTTTTCCCGGTAATCCGTATTTGGA (site CACTTGCCTTC)	0.021
AGGAAGACATGGACCGGTTTTCCCGGTAATCCGTATTTGCA (site ATGACGACTTG)	0
CGGGAACCATGGACCGGTTTTCCCGGTAATCCGTATTTGCT (site CGGGAACCTAC)	0
GTAGGTACATGGACCGGTTTTCCCGGTAATCCGTATTTGAC (site GTCGGTACTGT)	1.16
TAAAGTCCATGGACCGGTTTTCCCGGTAATCCGTATTTGTG (site TAAAGTCCTCA)	0.64
AGGAAGACATGGACCGGTTTTCCCGGTAATCCGTATTTGCA (site ACGGAGACTTG)	2.51
AGAGTATCATGGACCGGTTTTCCCGGTAATCCGTATTTGCA (site ATAGTATCTTG)	1.83
CTACTTACATGGACCGGTTTTCCCGGTAATCCGTATTTGGA (site CTACTCACTTC)	0.209
TGAGGACCATGGACCGGTTTTCCCGGTAATCCGTATTTGCA (site TGAGGACCTTG)	0
TCTACTGCATGGACCGGTTTTCCCGGTAATCCGTATTTGCC (site TCTACTGCTGG)	0

Sequence	recombinant UMI read abundance (log10)
ATAGAGCCATGGACCGGTTTTCCCGGTAATCCGTATTTGAA (site ATAGAGCCTTT)	0.525
GGTACGTCATGGACCGGTTTTCCCGGTAATCCGTATTTGCT (site GGTACGTCTAC)	0.0226
TTTCCTCCATGGACCGGTTTTCCCGGTAATCCGTATTTGCG (site TTTCCTCCTCG)	0.0281
AAGAAGACATGGACCGGTTTTCCCGGTAATCCGTATTTGAA (site AAGAAGACTTT)	2.39
CCTCAAGCATGGACCGGTTTTCCCGGTAATCCGTATTTGAT (site CCTGAAGCTAT)	0.00432
ATAAGACCATGGACCGGTTTTCCCGGTAATCCGTATTTGAC (site ATAAGTCCTGT)	0
CCACGTGCATGGACCGGTTTTCCCGGTAATCCGTATTTGAT (site CCACGTGCTAT)	0.871
CATAGGGCATGGACCGGTTTTCCCGGTAATCCGTATTTGTC (site CATAGGGCTGA)	2.5
AGACATCCATGGACCGGTTTTCCCGGTAATCCGTATTTGAC (site AGACATCCTGT)	0
GGTACGTCATGGACCGGTTTTCCCGGTAATCCGTATTTGTT (site GTTACGTCTAA)	0.0263
GTTGTTCCATGGACCGGTTTTCCCGGTAATCCGTATTTGGC (site GTTGTTCCTAC)	0.00298
CTCCCTACATGGACCGGTTTTCCCGGTAATCCGTATTTGAG (site CTTCCTACTCT)	0.0102
GTAGGTACATGGACCGGTTTTCCCGGTAATCCGTATTTGAC (site GTAAGTACTGT)	1.98
AGAAAAGCATGGACCGGTTTTCCCGGTAATCCGTATTTGCT (site AGAAATGCTAG)	0
AGGCTTTCATGGACCGGTTTTCCCGGTAATCCGTATTTGAC (site AGGCTTTCTGT)	0.502
GGAGACGCATGGACCGGTTTTCCCGGTAATCCGTATTTGGT (site GGAGACGCTAC)	0.461

— the supplement of paper PMC11208160
